The structures appear in SMILES notation. Converted amounts (≈) assume the structure as drawn. Some results are limits rather than exact numbers.

These results are taken from PubChem BioAssay AID1996.

For this series the following is noted: buffer; pH 7.4; 200.0 µM.
On to `Cc1ccc(S(=O)(=O)CCc2nc3ccccc3[nH]2)cc1`, for which the kinetic solubility was greater than 45.1 µg/mL.
The same measure for `Cc1nc(NC(=O)c2cc3ccccc3o2)sc1C`: 3.1 µg/mL (≈ 11.4 µM); for `COc1cccc(C(=O)C2CN(C)CC2c2ccc(Cl)cc2)c1` (stereo not given): greater than 49.5 µg/mL; for `Cc1ccc(S(=O)(=O)CC(O)COc2ccc(C#N)cc2)cc1` (stereo not given): greater than 49.7 µg/mL.
The same measure for `Cc1ccnc(NC(=O)c2cnc(Cl)c(Cl)c2)c1`: 6.4 µg/mL (≈ 22.7 µM); for `CCN(CC)C(=O)c1csc(Nc2cccc3ccccc23)n1`: 7.2 µg/mL (≈ 22.1 µM); for `S=c1[nH]ccn1-c1ccc(Cl)cc1`: 29.2 µg/mL (≈ 139 µM).
Next, `CCOC(=O)C1(CC2CC2)CCN(Cc2cnc(N(C)C)s2)CC1`: 46.1 µg/mL (≈ 131 µM); `O=C1[C@@H]2CSCN2C(=O)CN1Cc1cccc(C(F)(F)F)c1`: 44 µg/mL (≈ 133 µM).
`CCN(CC)C(=S)SC1CCCCN(C(=O)c2ccc(F)cc2)C1=O` (stereo not given) had a solubility (kinetic) of 5.2 µg/mL (≈ 13.6 µM).
Next, `O=C1CSC(=Nc2cccc(Cl)c2Cl)N1Cc1cccnc1`: 30.8 µg/mL (≈ 87.4 µM); `O=C1Nc2ccccc2/C1=C/c1ccccc1F`: 2.4 µg/mL (≈ 10 µM).
Turning to `O=C(CN1CCC(NC(=O)C2CC2)CC1)Nc1ccccc1[N+](=O)[O-]`, the kinetic solubility was 46.6 µg/mL (≈ 135 µM).
The same measure for `Cl.NCCCCNCCCN`: 16.4 µg/mL.
The same measure for `Cc1ccc2[nH]c(C(=O)O)c(NC(=O)[C@@H]3C[C@@H]3c3ccccc3)c2c1`: greater than 50.2 µg/mL; for `CCCNC(=S)N1CCC(C(=O)c2ccc3c(c2)OCCO3)CC1`: 41.3 µg/mL (≈ 119 µM); for `COc1ccc(NC(=O)c2cc(-c3ccc(C)cc3)on2)cc1OC`: less than 0.4 µg/mL.
The same measure for `CSc1ccccc1C(=O)Nc1ccccc1C(=O)NC(C)C`: greater than 49.3 µg/mL; for `Fc1ccccc1CN1CCN(c2ncccn2)CC1`: 30.1 µg/mL (≈ 111 µM); for `O=c1[nH]c(-c2cccnc2)nc2sc(-c3ccccc3)cc12`: 0.2 µg/mL (≈ 0.655 µM).
On to `CN1C2CCC1CC(NC(=O)CSCc1ccc(Cl)cc1Cl)C2` (stereo not given), for which the solubility (kinetic) was greater than 56 µg/mL.
Next, `CN(C)c1ccc(CCc2ccc(N)cc2)cc1`: 21 µg/mL (≈ 87.4 µM); `CCOC(=O)Cc1csc(NC(=O)c2cccc(Cl)c2)n1`: 6.9 µg/mL (≈ 21.2 µM).
Next, `O=C(CCCCl)Nc1nc(-c2ccc3c(c2)OCCO3)cs1`: 1.1 µg/mL (≈ 3.25 µM).
Next, `CC(NC(=O)c1cccs1)C1CCCO1` (stereo not given): greater than 33.8 µg/mL.
`CCCc1cc(=O)[nH]c(NCCc2ccccc2)n1`: the kinetic solubility was greater than 38.6 µg/mL.
Next, `CCOC(=O)c1ccc(NC(=O)N2CCOCC2)cc1`: greater than 41.7 µg/mL; `COc1cc(OC)cc(C(=O)Nc2ccc(Nc3ccccc3)cc2)c1`: 2.5 µg/mL (≈ 7.18 µM); `CCCOP(=O)(c1ccc(N(C)C)cc1)C(O)c1cc(OC)ccc1OC` (stereo not given): greater than 59 µg/mL.
Next, `COC(=O)COc1ccc(S(=O)(=O)N2CCCCCC2)cc1C`: 39.3 µg/mL (≈ 115 µM).
For the compound `Cc1ccc(CCNC(=O)CNC(=O)c2cccs2)cc1`, the solubility (kinetic) amounted to 40.3 µg/mL (≈ 133 µM).
The same measure for `Cc1ccsc1C(=O)OCC(=O)N(Cc1ccccc1)C(C)C`: 40.2 µg/mL (≈ 121 µM); for `Cn1c(-c2cc3ccccc3oc2=O)nc2ccccc21`: 2.5 µg/mL (≈ 9.05 µM).
The same measure for `CCOC(=O)c1c(C)[nH]c(C(=O)C(C)N2CCCC2)c1C` (stereo not given): 37 µg/mL (≈ 127 µM).
The compound `O=C(c1ccccc1)C1NC1c1ccccc1` (stereo not given) returned a solubility (kinetic) of 26.9 µg/mL (≈ 120 µM).
`CCN(CC)Cc1ccccn1.Cl`: the solubility (kinetic) is 29.2 µg/mL.
Turning to `Cc1cccc(S(=O)(=O)Nc2cc(Cl)ccc2N2CCOCC2)c1`, the kinetic solubility came to 3.6 µg/mL (≈ 9.81 µM).
`COc1ccccc1-n1ccnc1SCC(=O)NC1CCCC1` displayed a solubility (kinetic) of 45.3 µg/mL (≈ 137 µM).
Next, `COc1ccc(CC(=O)N(Cc2ccccc2)C(C)C)cc1`: 40.7 µg/mL (≈ 137 µM); `OC1(c2ccc3c(c2)OCO3)CCN(Cc2ccc(F)cc2)CC1`: greater than 49.4 µg/mL; `CN1C2=CC=CC=CC2=[N+](C)C12C([N+](=O)[O-])=CC(=[N+]([O-])[O-])C=C2[N+](=O)[O-]` (stereo not given): 0.7 µg/mL (≈ 1.95 µM).
Regarding `COc1ccc(S(=O)(=O)N2CCc3ccccc3C2)cc1C(=O)O`, the kinetic solubility was 48.4 µg/mL (≈ 139 µM).
Next, `Nc1ccccc1SCC(=O)Nc1ccc2c(c1)OCO2`: greater than 45.4 µg/mL.
Next, `CCN1CNC(=S)N(c2cccc(C)c2)C1`: greater than 35.3 µg/mL.
For the compound `Cc1ccc(OCCCCN2CCCCC2)c(C)c1`, the kinetic solubility amounted to 19.6 µg/mL (≈ 75 µM).
The same measure for `CCCCc1ccc(NC(=O)NCc2ccccn2)cc1`: 13.1 µg/mL (≈ 46.2 µM).
Compound `CCc1ccccc1N(C(C)=O)c1nc(CCl)cs1` showed a solubility (kinetic) greater than 44.2 µg/mL.
Next, `Cc1cccc(OCCSc2nc3ncnc(N)c3[nH]2)c1`: 1.5 µg/mL (≈ 4.98 µM); `COc1ccccc1OC(C)C(=O)N1CC(=O)Nc2ccccc21` (stereo not given): greater than 49 µg/mL; `Cc1ccc(C)c(C(=O)Nc2nc3ccccc3[nH]2)c1`: 0.4 µg/mL (≈ 1.51 µM).
The same measure for `COc1ccc(S(=O)(=O)n2cnc3ccccc32)cc1.Cl`: greater than 48.7 µg/mL; for `Cc1c(C(=O)O)cc(C(C)(C)C)n1CCSCCO`: 38.8 µg/mL (≈ 136 µM).
Next, `CCOc1ccccc1CNS(=O)(=O)c1cnc[nH]1`: greater than 42.2 µg/mL; `O=C(CSc1ccccn1)Nc1cccc([N+](=O)[O-])c1`: 38 µg/mL (≈ 131 µM).
`COc1ccc(-n2c(C)nc3ccccc3c2=O)c([N+](=O)[O-])c1` registered a solubility (kinetic) of 39.4 µg/mL (≈ 127 µM).
The same measure for `CCCn1c(=O)c2c(nc3n2CCS3)n(C)c1=O`: greater than 39.9 µg/mL.
Next, `Cc1c(C(=O)OCC(=O)Nc2ccc(C(=O)N(C)C)cc2)oc2ccccc12`: 6.6 µg/mL (≈ 17.4 µM).
Compound `CC(=O)N(c1nc(CCl)cs1)c1ccc(C)cc1C` registered a solubility (kinetic) greater than 44.2 µg/mL.
Next, `CN(C(=O)CN1CCN(c2ccc([N+](=O)[O-])cn2)CC1)c1ccccc1`: greater than 53.3 µg/mL; `COc1ccc(OCCNC(=O)Nc2cc(F)c(F)cc2Cl)cc1`: less than 0.4 µg/mL.
The same measure for `O=C1CN(C(=O)/C=C/c2ccccc2F)c2ccccc2N1`: 12.9 µg/mL (≈ 43.5 µM); for `CCN(CC)c1ccc(CNc2ccc3c(c2)ncn3CC)cc1`: 21.9 µg/mL (≈ 67.9 µM); for `O=C(C1CC1)N1CCN(c2ccc(O)cc2)CC1`: greater than 36.9 µg/mL.
`O=C(O)COCC(=O)Nc1ccc2c(c1)ncn2CCc1ccccc1` showed a solubility (kinetic) greater than 53 µg/mL.
Next, `CCc1ccccc1NC(=O)c1cnn(-c2ccccc2)c1C`: greater than 45.8 µg/mL; `O=C(Cc1ccccc1)O/N=C1\CCCc2ccccc21`: 17.1 µg/mL (≈ 61.2 µM); `CCNC(=O)CSc1nc2sccc2c(=O)n1-c1ccccc1`: greater than 51.8 µg/mL.
`CSc1nc(-c2ccccc2)c(C#N)c(=O)[nH]1` displayed a solubility (kinetic) greater than 36.5 µg/mL.
The same measure for `N#C/C(=C\Nc1ccc(Cl)cn1)S(=O)(=O)c1ccccn1`: 3.7 µg/mL (≈ 11.5 µM).
The same measure for `COc1ccc(CC(=O)O/N=C(\N)Cc2ccc([N+](=O)[O-])cc2)cc1`: 5.6 µg/mL (≈ 16.3 µM); for `O=C1CC(c2ccc(Cl)cc2)CC(O)=C1C=NCCO` (stereo not given): greater than 44.1 µg/mL; for `O=C(c1ccc(Cl)cc1)N1CCC2(CC1)OCCO2`: 39.6 µg/mL (≈ 141 µM).
Next, `COc1ccc(CCNC(=O)COC(=O)Cc2c[nH]c3ccccc23)cc1OC`: 47 µg/mL (≈ 119 µM).
In the case of `CCC(C)[C@H](NC(=O)Nc1ccccc1F)C(=O)O` (stereo not given in full), the kinetic solubility was greater than 40.2 µg/mL.
The same measure for `CC1Cc2ccccc2N1C(=O)COC(=O)c1ccc(Cl)nc1` (stereo not given): 11.1 µg/mL (≈ 33.6 µM); for `OCCC1CCCCN1CC(O)COCc1ccc(Cl)cc1` (stereo not given): 45.1 µg/mL (≈ 138 µM); for `COc1ccccc1CCNC(C)CCc1ccc(O)cc1` (stereo not given): 33.2 µg/mL (≈ 111 µM).
The same measure for `CC(C)N(C(=S)Nc1cccnc1)c1ccccc1`: 32.8 µg/mL (≈ 121 µM).
In the case of `CCOC(=O)C(NC(C)=O)C(O)c1ccc([N+](=O)[O-])cc1` (stereo not given), the solubility (kinetic) is 43.2 µg/mL (≈ 146 µM).
Next, `Cc1ccc(N2C(=O)CSC2=S)cc1C`: less than 0.5 µg/mL; `O=S(=O)(Nc1cccnc1Cl)c1ccc(-c2ccccc2)cc1`: 47.7 µg/mL (≈ 138 µM).
`Cc1cc(/C=C2\SC(=O)NC2=O)c(C)n1-c1ccc(N(C)C)cc1` gave a solubility (kinetic) of less than 0.2 µg/mL.
The same measure for `CCOC(=O)N1c2ccccc2C=CC1OCC` (stereo not given): 8 µg/mL (≈ 32.4 µM); for `CCOC(=O)CNc1ccc(OC(F)(F)F)cc1`: 7.2 µg/mL (≈ 27.4 µM).
With `c1ccc(-c2ccc(CN3CCSCC3)cc2)cc1`, the solubility (kinetic) turned out to be 1.7 µg/mL (≈ 6.31 µM).
The same measure for `O=C1NCCN/C1=C\C(=O)c1ccc(F)cc1`: 32.5 µg/mL (≈ 139 µM); for `Cc1cc2nc(=O)c(/C=C3\C=Nc4ccccc43)c(N)n2o1`: less than 0.2 µg/mL; for `CN(C(=O)/C=C/c1ccc(F)cc1)C1CCCCC1`: greater than 39.2 µg/mL.
The same measure for `Cc1noc(-c2ccc(Cl)cc2)c1C(=O)O/N=C(\N)c1ccc(C(C)(C)C)cc1`: 0.5 µg/mL (≈ 1.21 µM); for `c1ccc(-c2nc(N3CCOCC3)sc2-c2ccccc2)cc1`: less than 0.3 µg/mL; for `O=C(CN1C(=O)NC2(CCCCC2)C1=O)N1CCc2ccccc2C1`: greater than 51.2 µg/mL.
The same measure for `CNc1nc(NC#N)nc(SC)n1`: 24.9 µg/mL (≈ 127 µM).
With `O=C(COC(=O)/C=C/c1ccc(Cl)cc1Cl)NCC1CCCO1` (stereo not given), the solubility (kinetic) was determined as 10.4 µg/mL (≈ 29 µM).
The compound `Oc1cc2c(cc1CN1CCN(c3ccccc3)CC1)OCO2` showed a kinetic solubility of 17.6 µg/mL (≈ 56.3 µM).
The same measure for `O=C(NC1CC1)c1cc(OCC(F)(F)F)ccc1OCC(F)(F)F`: 44.3 µg/mL (≈ 124 µM); for `Cc1ccc(NC(=O)N[C@H](C(=O)O)C(C)C)c(C)c1`: greater than 39.6 µg/mL.
Next, `CC(=O)c1c(C)[nH]c(C(=O)Nc2cc(F)ccc2C)c1C`: 4.5 µg/mL (≈ 15.6 µM); `c1ccc(-c2ccc(C(c3ccccc3)n3ccnc3)cc2)cc1` (stereo not given): 0.7 µg/mL (≈ 2.26 µM); `Cc1nc(C)c(C(=O)OCC(=O)Nc2ccccc2)s1`: greater than 43.6 µg/mL.
With `O=c1[nH]c(/C=C\c2cccc(Cl)c2)nc(O)c1[N+](=O)[O-]`, the kinetic solubility was greater than 44.1 µg/mL.
The same measure for `Cl.OC(CNCc1ccc(-c2ccccc2)cc1)c1ccccc1` (stereo not given): 1.6 µg/mL; for `Cc1nc(CSc2n[nH]c(=O)n2-c2cccc(F)c2)cs1`: greater than 48.4 µg/mL; for `Cc1ccc(CNC(=O)CSCc2ccccc2F)cc1`: 43.1 µg/mL (≈ 142 µM).
Next, `O=C(c1ccccc1)c1ccccc1N=Cc1c(O)[nH]c(=O)[nH]c1=O`: 3.8 µg/mL (≈ 11.3 µM); `COc1ccc(OC)c(N=C(N)N=C(N)N)c1`: greater than 35.6 µg/mL.
